Blank lines part the entries; values can stand above or below the molecule they belong to.
Tests used:
[1] = Hygroscopicity evaluation; assay type: physicochemical; settings: for Individual related material: in %
From the text: Samples were placed in a glass desiccator in which relative humidity was adjusted to 33%, 53%, 75%, and 93%, and then stored for two and four weeks to be evaluated.

JAK2, Tyk2 = test: Human whole blood assay, JAK2, Tyk2; assay type: cell-based; settings: cytokine-induced STAT phosphorylation
Description: (§1) A stock solution of Compound 1 obtained according to Preparation Example 1 was diluted with distilled water and then serially diluted at ⅕ with 4% DMSO. 5 μL of test material was added to 100 μL of whole blood collected using a 1.7 mL eppendorf tube, mixed, and incubated at 37° C. for 45 minutes.
(§2) IL-6 (10 μg/ml) was diluted with 0.1% BSA/DW to reach 1 μg/mL each. 5 μL of IL-6 was added (at a final concentration of 50 ng/mL) and incubated at 37° C. for 15 minutes. At this time, 5 μL of DPBS was added as a non-stimulated control group. Lyse/fix buffer 5× was diluted 1× in distilled water and used. […]
(§3) For double staining of CD4 and pSTATI, anti-[…] and anti-pSTATI were mixed in a staining buffer and added to each of the samples. […] On the next day, the results were analyzed using FACSCanto II. […]
(§4) The numerical values analyzed by FlowJo were calculated to obtain IC50 values using GraphPad Prism 5 software (product name).
(§5) No treatment response (NTR) was set as a reference, and the degree of the phosphorylation of STAT induced by cytokines was converted into a relative ratio (% control group). A dose-response plot was obtained for each concentration-dependent activity of each test material using GraphPad Prism (version 5.0) and ICso values were calculated.

JAK2 = JAK2 (Homo sapiens, UniProt O60674); test: ADP-Glo JAK2 kinase assay; assay type: biochemical; settings: read-out: IC50, In vitro enzyme JAK2
Sequence of JAK2 (O60674 whole entry, species assumed): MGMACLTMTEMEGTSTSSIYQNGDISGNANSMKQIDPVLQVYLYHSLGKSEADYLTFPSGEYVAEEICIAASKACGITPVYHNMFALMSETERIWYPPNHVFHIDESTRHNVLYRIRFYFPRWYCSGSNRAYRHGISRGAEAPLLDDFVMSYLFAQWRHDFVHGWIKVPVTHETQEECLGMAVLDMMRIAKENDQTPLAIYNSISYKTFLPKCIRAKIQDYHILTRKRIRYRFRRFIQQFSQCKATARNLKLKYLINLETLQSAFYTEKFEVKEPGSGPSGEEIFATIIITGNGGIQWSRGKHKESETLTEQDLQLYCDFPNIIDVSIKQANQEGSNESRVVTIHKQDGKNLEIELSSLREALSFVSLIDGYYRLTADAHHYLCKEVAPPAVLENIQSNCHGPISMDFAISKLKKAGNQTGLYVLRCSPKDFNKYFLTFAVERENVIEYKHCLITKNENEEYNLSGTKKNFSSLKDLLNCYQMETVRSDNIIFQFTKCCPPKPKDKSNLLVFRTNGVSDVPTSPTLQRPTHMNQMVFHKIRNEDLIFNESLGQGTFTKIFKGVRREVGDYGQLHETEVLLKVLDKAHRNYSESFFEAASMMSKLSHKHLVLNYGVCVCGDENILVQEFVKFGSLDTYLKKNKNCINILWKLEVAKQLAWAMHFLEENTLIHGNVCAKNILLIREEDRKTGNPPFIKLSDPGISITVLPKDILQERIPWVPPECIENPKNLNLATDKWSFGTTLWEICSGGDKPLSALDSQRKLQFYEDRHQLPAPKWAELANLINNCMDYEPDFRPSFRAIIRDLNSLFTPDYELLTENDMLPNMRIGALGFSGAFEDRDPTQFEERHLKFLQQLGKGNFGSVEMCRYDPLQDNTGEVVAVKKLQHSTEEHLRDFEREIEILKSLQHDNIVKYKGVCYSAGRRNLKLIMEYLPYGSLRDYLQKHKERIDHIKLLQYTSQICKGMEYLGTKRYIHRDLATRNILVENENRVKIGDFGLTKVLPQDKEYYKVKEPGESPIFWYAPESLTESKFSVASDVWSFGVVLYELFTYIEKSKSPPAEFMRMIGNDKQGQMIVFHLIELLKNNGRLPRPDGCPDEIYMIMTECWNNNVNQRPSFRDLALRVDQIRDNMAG
Description: 10 mM of Compound 1 was diluted in DMSO to prepare samples at four concentrations (5,000 nM, 500 nM, 50 nM and 5 nM). 10 mM of ATP was diluted at 1/40 in 1× kinase buffer to make a preparation. 1 mg/mL of IGFIRtide was used as a stock solution. 100 ng/μL of JAK2 enzyme was diluted at 1/20 in 1× kinase buffer to make a preparation. 1 μL of ATP, 1 μL of IGFIRtide, and 1 μL of Compound 1 prepared as above were mixed, after which 2 μL of JAK2 enzyme was finally added and reacted at 30° C. for 40 minutes. At this time, a tube without JAK2 enzyme was prepared as a blank and a tube without Compound 1 was prepared as a positive control group together (a final concentration of samples was 1,000 nM, 100 nM, 10 nM, and 1 nM).
(§6) Then, 5 μL of ADP-glo was added to each tube and reacted at 30° C. for 40 minutes, after which 10 μL of kinase detection reagent was added thereto and reacted at room temperature for 15 minutes. After 18 μL of the reactant was transferred to a 384 well plate, luminescence was measured using a plate reader.

JAK1 [2] = test: Human whole blood assay, JAK1; assay type: cell-based; settings: cytokine-induced STAT phosphorylation
Description: as §1, §2, §3, §4, §5

JAK1 [3] = biological target: JAK1 (Homo sapiens, UniProt P23458); test: ADP-Glo JAK1 kinase assay; assay type: biochemical
Sequence of JAK1 (Homo sapiens, UniProt P23458) (P23458 whole entry, species assumed): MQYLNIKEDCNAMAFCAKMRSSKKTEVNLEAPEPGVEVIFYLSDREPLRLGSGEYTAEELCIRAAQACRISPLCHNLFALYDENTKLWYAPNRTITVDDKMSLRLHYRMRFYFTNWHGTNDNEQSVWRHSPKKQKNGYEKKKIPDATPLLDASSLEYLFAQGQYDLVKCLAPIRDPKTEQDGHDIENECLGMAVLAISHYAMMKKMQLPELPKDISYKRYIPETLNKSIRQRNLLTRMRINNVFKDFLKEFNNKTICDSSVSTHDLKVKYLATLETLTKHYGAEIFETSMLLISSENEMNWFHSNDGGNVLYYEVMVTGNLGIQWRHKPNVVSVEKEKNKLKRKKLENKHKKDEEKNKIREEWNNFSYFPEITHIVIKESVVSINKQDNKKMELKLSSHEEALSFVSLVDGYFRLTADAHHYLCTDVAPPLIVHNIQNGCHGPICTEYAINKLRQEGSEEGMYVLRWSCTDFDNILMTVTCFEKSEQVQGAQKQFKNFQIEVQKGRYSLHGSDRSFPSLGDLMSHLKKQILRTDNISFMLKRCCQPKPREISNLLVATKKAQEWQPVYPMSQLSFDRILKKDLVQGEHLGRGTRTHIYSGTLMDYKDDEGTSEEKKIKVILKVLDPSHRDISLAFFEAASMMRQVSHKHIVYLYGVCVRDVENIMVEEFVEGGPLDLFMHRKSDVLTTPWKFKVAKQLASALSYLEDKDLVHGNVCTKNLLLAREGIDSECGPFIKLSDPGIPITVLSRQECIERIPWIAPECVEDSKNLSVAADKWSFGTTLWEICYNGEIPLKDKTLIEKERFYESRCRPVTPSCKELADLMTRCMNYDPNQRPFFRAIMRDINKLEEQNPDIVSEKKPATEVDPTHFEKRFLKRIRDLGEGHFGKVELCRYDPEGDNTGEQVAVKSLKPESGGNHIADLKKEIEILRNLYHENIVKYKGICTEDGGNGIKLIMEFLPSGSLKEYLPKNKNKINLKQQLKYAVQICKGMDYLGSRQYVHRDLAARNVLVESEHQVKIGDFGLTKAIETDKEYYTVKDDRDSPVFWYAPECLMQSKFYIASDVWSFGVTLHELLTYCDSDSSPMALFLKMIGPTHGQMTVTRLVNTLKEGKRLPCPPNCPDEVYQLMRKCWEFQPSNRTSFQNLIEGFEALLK
Description: 10 mM of (S)—N-(4-(1-(2-cyanoacetyl)-3-methyl-1,2,3,6-tetrahydropyridin-4-yl)-1H-pyrrolo[2,3-b]pyridin-6-yl)cyclopropanecarboxamide (hereinafter, referred to as Compound 1), which is the heterocyclic compound represented by formula II obtained according to Preparation Example 1, was diluted in DMSO to prepare samples at five concentrations (1,000 nM, 200 nM, 40 nM, 8 nM, and […]). 10 mM of ATP and 10 mg/mL of insulin receptor substrate (IRS) were diluted at 1/40 and 1/50, respectively, in 1× kinase buffer. In addition, 222 ng/μL of JAK1 enzyme was diluted at ⅛ in 1× kinase buffer to make a preparation. 1 μL of ATP, 1 μL of IRS, and 1 μL of Compound 1 prepared as above were mixed, after which 2 μL of JAK1 enzyme was finally added and reacted at 30° C. for 40 minutes. At this time, a tube without JAK1 enzyme was prepared for a blank and a tube without Compound 1 was prepared as a positive control group together (a final concentration of samples was 200 nM, 40 nM, 8 nM, 1.6 nM, and 0.32 nM).
as §6

Total related material ([1]; Initial): 0.37%
Water ([1]; Initial): 0.61%
Individual related material ([1]; Initial): 0.07
Total related material ([1]; relative humidity 33%, 2 W): 0.43%
Water ([1]; relative humidity 33%, 2 W): 0.41%
Individual related material ([1]; relative humidity 33%, 2 W): 0.07
Total related material ([1]; relative humidity 33%, 4 W): 0.41%
Water ([1]; relative humidity 33%, 4 W): 0.53%
Individual related material ([1]; relative humidity 33%, 4 W): 0.08
Total related material ([1]; relative humidity 53%, 2 W): 0.43%
Water ([1]; relative humidity 53%, 2 W): 0.53%
Individual related material ([1]; relative humidity 53%, 2 W): 0.08
Total related material ([1]; relative humidity 53%, 4 W): 0.35%
Water ([1]; relative humidity 53%, 4 W): 0.66%
Individual related material ([1]; relative humidity 53%, 4 W): 0.07
Total related material ([1]; relative humidity 75%, 2 W): 0.44%
Water ([1]; relative humidity 75%, 2 W): 0.60%
Individual related material ([1]; relative humidity 75%, 2 W): 0.08
Total related material ([1]; relative humidity 75%, 4 W): 0.39%
Water ([1]; relative humidity 75%, 4 W): 0.81%
Individual related material ([1]; relative humidity 75%, 4 W): 0.07
Total related material ([1]; relative humidity 93%, 2 W): 0.41%
Water ([1]; relative humidity 93%, 2 W): 1.17%
Individual related material ([1]; relative humidity 93%, 2 W): 0.08
Total related material ([1]; relative humidity 93%, 4 W): 0.33%
Water ([1]; relative humidity 93%, 4 W): 0.97%
Individual related material ([1]; relative humidity 93%, 4 W): 0.07
Compound: C[C@@H]1CN(C(=O)CC#N)CC=C1c1cc(NC(=O)C2CC2)nc2[nH]ccc12 [Example 3, (S)—N-(4-(1-(2-cyanoacetyl)-3-methyl-1,2,3,6-tetrahydropyridin-4-yl)-1H-pyrrolo[2,3-b]pyridin-6-yl)cyclopropanecarboxamide]

IC50 (JAK2, Tyk2): 3640 nM
IC50 (JAK2): 68 nM
IC50 (JAK1 [2]): 70 nM
IC50 (JAK1 [3]; ADP-Glo kinase assay, read-out: IC50, In vitro enzyme JAK1): 3.8 nM
JAK1 inhibitory activity (JAK1 [3]; summary of Experimental Examples 1 to 3): very excellent JAK1 inhibitory activity
Compound: C[C@@H]1CN(C(=O)CC#N)CC=C1c1cc(NC(=O)C2CC2)nc2[nH]ccc12 [Compound 1, (S)—N-(4-(1-(2-cyanoacetyl)-3-methyl-1,2,3,6-tetrahydropyridin-4-yl)-1H-pyrrolo[2,3-b]pyridin-6-yl)cyclopropanecarboxamide]
